From patent US20250228239A1, “MOLECULES HAVING PESTICIDAL UTILITY, AND INTERMEDIATES, COMPOSITIONS, AND PROCESSES, RELATED THERETO” (priority 2024, published 2025)

Assays:
Type in all cases: in vivo
[1] = system: Cabbage Looper (Trichoplusia ni, TRIPNI); experiment: Bioassays on Cabbage Looper (CL), 128-well diet tray assay; settings: Trichoplusia ni; Table ABC: Biological Results; species CL; read-out: CL
Procedure, shortened: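 Each of eight wells receives artificial diet treated at 50 μg/cm^2 with the test molecule, then one to five second-instar larvae. Incubation runs five to seven days at 25° C with a 14:10 light-dark cycle under vented covers. Mortality is scored per well as a percentage and averaged.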

[2] = system: Yellow Fever Mosquito (Aedes aegypti, AEDSAE); settings: Table ABC: Biological Results; species YFM
Procedure, shortened: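 Larvae ~1 day old, in liver powder/water; compound from 4000 ppm DMSO stock diluted with water/acetone (90:10); 6 reps; lidded, RT, 3 d; mortality scored per well, rated.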

[3] = system: Beet Armyworm (Spodoptera exigua, LAPHEG); experiment: Bioassays on Beet Armyworm (BAW), 128-well diet tray assay; settings: Spodoptera exigua; Table ABC: Biological Results; species BAW; read-out: BAW
Procedure, shortened: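 Percent larval mortality, averaged across eight wells, scored after five to seven days at 25° C. under 14:10 light-dark. Each well held one to five second instars feeding on diet dosed at 50 μg/cm^2 with compound from 90:10 acetone-water, solvent dried off.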

Row | SMILES | pest or weed control at 50 µg/cm2 [1] | YFM [2] | pest or weed control at 50 µg/cm2 [3]
1 | O=C(Nc1ccc(F)cc1F)c1cc(NC(=O)[C@H]2[C@H](c3ccc(F)c(Cl)c3)C2(Cl)Cl)cc(C(F)(F)F)c1Cl (relative stereo) [F1215, trans-2-Chloro-5-(2,2-dichloro-3-(3-chloro-4-fluorophenyl)cyclopropane-1-carboxamido)-N-(2,4-difluorophenyl)-3-(trifluoromethyl)benzamide] | 50 to 100% | A (80–100) | 50 to 100%
2 | CC(=O)Nc1ccc(NC(=O)c2cc(NC(=O)[C@H]3[C@H](c4ccc(F)c(Cl)c4)C3(Cl)Cl)cc(C(F)(F)F)c2Cl)cc1 (relative stereo) [F1216, trans-N-(4-Acetamidophenyl)-2-chloro-5-(2,2-dichloro-3-(3-chloro-4-fluorophenyl)cyclopropane-1-carboxamido)-3-(trifluoromethyl)benzamide] | 50 to 100% | A (80–100) | 50 to 100%
3 | COc1c(F)cc(NC(=O)[C@H]2[C@H](c3ccc(F)c(Cl)c3)C2(Cl)Cl)cc1C(=O)Nc1ccc(F)cc1 (relative stereo) [F1218, trans-5-(2,2-Dichloro-3-(3-chloro-4-fluorophenyl)cyclopropane-1-carboxamido)-3-fluoro-N-(4-fluorophenyl)-2-methoxybenzamide] | 50 to 100% | A (80–100) | 50 to 100%
4 | COc1c(F)cc(NC(=O)[C@H]2[C@H](c3ccc(F)c(Cl)c3)C2(Cl)Cl)cc1C(=O)Nc1ccc(F)cc1F (relative stereo) [F1219, trans-5-(2,2-Dichloro-3-(3-chloro-4-fluorophenyl)cyclopropane-1-carboxamido)-N-(2,4-difluorophenyl)-3-fluoro-2-methoxybenzamide] | 50 to 100% | A (80–100) | 50 to 100%
5 | COc1c(F)cc(NC(=O)[C@H]2[C@H](c3ccc(F)c(Cl)c3)C2(Cl)Cl)cc1C(=O)Nc1ccc(NC(C)=O)cc1 (relative stereo) [F1220, trans-N-(4-Acetamidophenyl)-5-(2,2-dichloro-3-(3-chloro-4-fluorophenyl)-cyclopropane-1-carboxamido)-3-fluoro-2-methoxybenzamide] | 50 to 100% | A (80–100) | 50 to 100%
6 | Cc1c(N)ccc(NC(=O)c2cc(NC(=O)[C@H]3[C@H](c4cc(Cl)cc(Cl)c4)C3(Cl)Cl)ccc2Cl)c1C (relative stereo) [F1229, trans-N-(4-amino-2,3-dimethylphenyl)-2-chloro-5-(2,2-dichloro-3-(3,5-dichlorophenyl)cyclopropane-1-carboxamido)benzamide] | 50 to 100% | A (80–100) | 50 to 100%
7 | O=C(Nc1ccc(F)cc1F)c1cc(NC(=O)[C@H]2[C@H](c3cc(Cl)cc(S(F)(F)(F)(F)F)c3)C2(Cl)Cl)ccc1Cl (relative stereo) [F1232, trans-2-chloro-5-(2,2-dichloro-3-(3-chloro-5-(pentafluoro-λ^6-sulfanyl)phenyl)cyclopropane-1-carboxamido)-N-(2,4-difluorophenyl)benzamide] | 50 to 100% | A (80–100) | 50 to 100%
8 | Nc1c(F)ccc(NC(=O)c2cc(NC(=O)[C@H]3[C@H](c4cc(Cl)cc(S(F)(F)(F)(F)F)c4)C3(Cl)Cl)ccc2Cl)c1F (relative stereo) [F1259, trans-N-(3-Amino-2,4-difluorophenyl)-2-chloro-5-(2,2-dichloro-3-(3-chloro-5-(pentafluoro-λ^6-sulfanyl)phenyl)cyclopropane-1-carboxamido)benzamide] | 50 to 100% | A (80–100) | 50 to 100%
9 | Cc1c(F)cc(NC(=O)[C@H]2[C@H](c3ccc(F)c(Cl)c3)C2(Cl)Cl)cc1C(=O)Nc1ccc(F)cc1 (relative stereo) [F1278, trans-5-(2,2-Dichloro-3-(3-chloro-4-fluorophenyl)cyclopropane-1-carboxamido)-3-fluoro-N-(4-fluorophenyl)-2-methylbenzamide] | 50 to 100% | A (80–100) | 50 to 100%
10 | Cc1c(F)cc(NC(=O)[C@H]2[C@H](c3ccc(F)c(Cl)c3)C2(Cl)Cl)cc1C(=O)Nc1ccc(F)cc1F (relative stereo) [F1279, trans-5-(2,2-Dichloro-3-(3-chloro-4-fluorophenyl)cyclopropane-1-carboxamido)-N-(2,4-difluorophenyl)-3-fluoro-2-methylbenzamide] | 50 to 100% | B (More than 0 – Less than 80) | 50 to 100%
11 | O=C(Nc1ccc(F)c(NC(=O)C(F)F)c1F)c1cc(NC(=O)[C@H]2[C@H](c3cccc(I)c3)C2(Cl)Cl)ccc1Cl (relative stereo) [F1281, trans-2-chloro-5-(2,2-dichloro-3-(3-iodophenyl)cyclopropane-1-carboxamido)-N-(3-(2,2-difluoroacetamido)-2,4-difluorophenyl)benzamide] | 50 to 100% | A (80–100) | 50 to 100%
12 | O=C(Nc1ccc(F)c(Br)c1)c1cc(NC(=O)[C@H]2[C@H](c3cc(Cl)cc(Cl)c3)C2(Cl)Cl)ccc1Cl (relative stereo) [F1304, trans-N-(3-bromo-4-fluorophenyl)-2-chloro-5-(2,2-dichloro-3-(3,5-dichlorophenyl)cyclopropane-1-carboxamido)benzamide] | 50 to 100% | A (80–100) | 50 to 100%
13 | O=C(Nc1ccc(F)cc1Br)c1cc(NC(=O)[C@H]2[C@H](c3cc(Cl)cc(Cl)c3)C2(Cl)Cl)ccc1Cl (relative stereo) [F1305, trans-N-(2-Bromo-4-fluorophenyl)-2-chloro-5-(2,2-dichloro-3-(3,5-dichlorophenyl)cyclopropane-1-carboxamido)benzamide] | 50 to 100% | A (80–100) | 50 to 100%
14 | O=C(Nc1c(F)cc(F)cc1Br)c1cc(NC(=O)[C@H]2[C@H](c3cc(Cl)cc(Cl)c3)C2(Cl)Cl)ccc1Cl (relative stereo) [F1309, trans-N-(2-Bromo-4,6-difluorophenyl)-2-chloro-5-(2,2-dichloro-3-(3,5-dichlorophenyl)cyclopropane-1-carboxamido)benzamide] | 50 to 100% | A (80–100) | 50 to 100%
15 | C=Cc1cc(NC(=O)c2cc(NC(=O)[C@H]3[C@H](c4cc(Cl)cc(Cl)c4)C3(Cl)Cl)ccc2Cl)ccc1F (relative stereo) [F1311, trans-2-chloro-5-(2,2-dichloro-3-(3,5-dichlorophenyl)cyclopropane-1-carboxamido)-N-(4-fluoro-3-vinylphenyl)benzamide] | 50 to 100% | A (80–100) | 50 to 100%
16 | C=Cc1cc(F)ccc1NC(=O)c1cc(NC(=O)[C@H]2[C@H](c3cc(Cl)cc(Cl)c3)C2(Cl)Cl)ccc1Cl (relative stereo) [F1312, trans-2-Chloro-5-(2,2-dichloro-3-(3,5-dichlorophenyl)cyclopropane-1-carboxamido)-N-(4-fluoro-2-vinylphenyl)benzamide] | 50 to 100% | A (80–100) | 50 to 100%
17 | C=Cc1ccc(NC(=O)c2cc(NC(=O)[C@H]3[C@H](c4cc(Cl)cc(Cl)c4)C3(Cl)Cl)ccc2Cl)c(F)c1 (relative stereo) [F1313, trans-2-Chloro-5-(2,2-dichloro-3-(3,5-dichlorophenyl)cyclopropane-1-carboxamido)-N-(2-fluoro-4-vinylphenyl)benzamide] | 50 to 100% | A (80–100) | 50 to 100%
18 | C=Cc1c(F)ccc(NC(=O)c2cc(NC(=O)[C@H]3[C@H](c4cc(Cl)cc(Cl)c4)C3(Cl)Cl)ccc2Cl)c1F (relative stereo) [F1314, trans-2-Chloro-5-(2,2-dichloro-3-(3,5-dichlorophenyl)cyclopropane-1-carboxamido)-N-(2,4-difluoro-3-vinylphenyl)benzamide] | 50 to 100% | A (80–100) | 50 to 100%
19 | C=Cc1cc(NC(=O)c2cc(NC(=O)[C@H]3[C@H](c4cc(Cl)cc(Cl)c4)C3(Cl)Cl)ccc2Cl)c(F)cc1F (relative stereo) [F1315, trans-2-Chloro-5-(2,2-dichloro-3-(3,5-dichlorophenyl)cyclopropane-1-carboxamido)-N-(2,4-difluoro-5-vinylphenyl)benzamide] | 50 to 100% | A (80–100) | 50 to 100%
20 | C=Cc1cc(F)cc(F)c1NC(=O)c1cc(NC(=O)[C@H]2[C@H](c3cc(Cl)cc(Cl)c3)C2(Cl)Cl)ccc1Cl (relative stereo) [F1316, trans-2-Chloro-5-(2,2-dichloro-3-(3,5-dichlorophenyl)cyclopropane-1-carboxamido)-N-(2,4-difluoro-6-vinylphenyl)benzamide] | 50 to 100% | A (80–100) | 50 to 100%
